Earlier results in PMC8900053, “Selumetinib in combination with dexamethasone for the treatment of relapsed/refractory RAS-pathway mutated paediatric and adult acute lymphoblastic leukaemia (SeluDex): study protocol for an international, parallel-group, dose-finding with expansion phase I/II trial” (BMJ Open, 2022).

Legend:
[1] = human, in vivo
[2] = early information from clinical studies
[3] = common side effect of selumetinib

Blood levels of selumetinib in people of Asian origin versus non-Asian subjects [2] | Chance that blurred vision may affect daily living (blurred vision mild or moderate in all reported previous cases) | Swelling of the face or extremities (patients receiving selumetinib) | Skin rash cases that can be more serious and require treatment (share of skin rash cases, majority of events are mild) | Compound | Tolerability of pulsed dosing versus continuous dosing [1] | Being sick (people affected) [3] [%] | Diarrhoea (people affected) [3] [%] | Feeling sick (people affected) [3] [%] | Feeling tired or weak (people affected) [3] [%] | Shortness of breath (people affected) [3] [%] | Skin rash, which may be itchy (people affected) [3] [%] | Swelling of the hands or feet (people affected) [3] [%] | Tolerability (more than 3,080 people have had the drug so far)
 |  |  |  | C[C@@H]1C[C@H]2[C@@H]3CCC4=CC(=O)C=C[C@]4(C)[C@@]3(F)[C@@H](O)C[C@]2(C)[C@@]1(O)C(=O)CO [dexamethasone] | better tolerated |  |  |  |  |  |  |  | 
higher | about 5% | commonly reported | around 10% | Cn1cnc2c(F)c(Nc3ccc(Br)cc3Cl)c(C(=O)NOCCO)cc21 [selumetinib] |  | ~30 | ~50 | ~50 | ~40 | ~20 | ~70 | ~30 | very well tolerated
